These results are taken from paper PMC4876719 (Cell chemical biology, 2016).

This assay concerns the target glutathione-S-transferase Pi 1 (GSTP1) (Homo sapiens, UniProt P09211). Put plainly: CDNB-glutathione conjugation assay with pure GSTP1 after […] min pre-incubation. The assay is classed as biochemical.

Chain of glutathione-S-transferase Pi 1 (GSTP1) (P09211 2-210): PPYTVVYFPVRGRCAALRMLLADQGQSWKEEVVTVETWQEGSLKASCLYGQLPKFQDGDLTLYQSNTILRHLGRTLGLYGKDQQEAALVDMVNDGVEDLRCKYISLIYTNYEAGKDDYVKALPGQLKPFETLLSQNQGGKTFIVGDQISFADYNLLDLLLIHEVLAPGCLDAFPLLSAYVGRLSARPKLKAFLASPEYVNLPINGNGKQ

The term IC50 denotes the concentration that inhibits the measured activity by half. Lower therefore signals inhibition by little substance. For the substance LAS17, the IC50 came out at 500 nM.
